From paper PMC9059924 (RSC Advances, 2019)

Experiments:
Assay type in all cases: cell-based, rat
[1] = tested on: primary cortical neurons; assay: Viability of normal primary cortical neurons after administration; conditions: 100 μM; for Cell survival rate of primary neurons after administration: normal neurons, control 1.00, mean ± SE
[2] = tested on: primary cortical neurons (OGD model); assay: Cell viability of primary cortical neurons in oxygen glucose deprivation; conditions: for Sample in 100 μM: cytotoxic at this concentration: footnote c; for Cell survival rate of primary neurons (OGD 12 h), Edaravone: positive drug 100 μM; for Neuroprotective activity of BA compounds in OGD model, in words: text SAR; for Improvement of survival rate of neuron (OGD 12 h), in words: P < 0.05 vs model
[3] = tested on: primary cortical neurons (OGD model); assay: Morphology of OGD neurons under inverted microscope; conditions: OGD 12 h

3-(2,2-Dimethyl-2H-1-benzopyran-6-yl)-N-(3-methoxyphenyl)-3-((3-methoxyphenyl)amino)propenamide [BN-10]
Cell survival rate of primary neurons after administration [1]: 0.81 ± 0.058 %
Cell survival rate of primary neurons (OGD 12 h), Sample in 1 μM ([2]; BN compounds, 1 μM, model 0.41 ± 0.014, control 1.00, mean ± SE): 0.81 ± 0.0090 %
Cell survival rate of primary neurons (OGD 12 h), Sample in 30 μM ([2]; BN compounds, 30 μM, model 0.41 ± 0.014, control 1.00, mean ± SE): 0.77 ± 0.0035 %
Sample in 100 μM: cytotoxic at this concentration ([2]; BN compounds): — ^c

5-methyl-2-phenyl-1,2-dihydropyrazol-3-one [Edaravone, reference compound]
Cell survival rate of primary neurons (OGD 12 h), Edaravone ([2]; BA table, model 0.49 ± 0.094, mean ± SE): 0.54 ± 0.0069 %
Cell survival rate of primary neurons (OGD 12 h), Edaravone ([2]; BN table, model 0.41 ± 0.014, mean ± SE): 0.56 ± 0.015 %

CC1(C)C=Cc2cc(NC(=O)/C=C/c3ccc(O)cc3)ccc2O1 [BA-01, (E)-N-(2,2-Dimethyl-2H-1-benzopyran-6-yl)-3-(4-hydroxyphenyl)acrylamide]
Cytotoxicity to normal neurons (reduced cell survival rate), in words [1]: cytotoxic
Cell survival rate of primary neurons after administration [1]: 0.75 ± 0.021 %
Sample in 100 μM: cytotoxic at this concentration ([2]; BA compounds): — ^c
Neuroprotective activity of BA compounds in OGD model, in words ([2]; OGD 12 h): the activity was decreased or disappeared

COc1cc(/C=C/C(=O)Nc2ccc3c(c2)C=CC(C)(C)O3)ccc1O [BA-02, (E)-N-(2,2-Dimethyl-2H-1-benzopyran-6-yl)-3-(4-hydroxy-3-methoxyphenyl)acrylamide]
Cytotoxicity to normal neurons (reduced cell survival rate), in words [1]: cytotoxic
Cell survival rate of primary neurons after administration [1]: 0.76 ± 0.025 %
Sample in 100 μM: cytotoxic at this concentration ([2]; BA compounds): — ^c

COc1ccc(/C=C/C(=O)Nc2ccc3c(c2)C=CC(C)(C)O3)cc1O [BA-03, (E)-N-(2,2-Dimethyl-2H-1-benzopyran-6-yl)-3-(3-hydroxy-4-methoxyphenyl)acrylamide]
Cytotoxicity to normal neurons (reduced cell survival rate), in words [1]: cytotoxic
Cell survival rate of primary neurons after administration [1]: 0.77 ± 0.012 %
Improvement of survival rate of neuron (OGD 12 h), in words ([2]; 1 μM): significantly improve the survival rate of neuron
Sample in 100 μM: cytotoxic at this concentration ([2]; BA compounds): — ^c

CC1(C)C=Cc2cc(NC(=O)/C=C/c3ccc(O)c(O)c3)ccc2O1 [BA-04, (E)-N-(2,2-Dimethyl-2H-1-benzopyran-6-yl)-3-(3,4-dihydroxyphenyl)acrylamide]
Cytotoxicity to normal neurons (reduced cell survival rate), in words [1]: cytotoxic
Cell survival rate of primary neurons after administration [1]: 0.56 ± 0.014 %
Sample in 100 μM: cytotoxic at this concentration ([2]; BA compounds): — ^c
Neuroprotective activity of BA compounds in OGD model, in words ([2]; OGD 12 h): the activity was decreased or disappeared

CC1(C)C=Cc2cc(NC(=O)/C=C/c3ccc4c(c3)OCO4)ccc2O1 [BA-05, (E)-N-(2,2-Dimethyl-2H-1-benzopyran-6-yl)-3-(1,3-benzodioxole-5-yl)acrylamide]
Cell survival rate of primary neurons after administration [1]: 0.85 ± 0.037 %

COc1ccc(/C=C/C(=O)Nc2ccc3c(c2)C=CC(C)(C)O3)cc1 [BA-06, (E)-N-(2,2-Dimethyl-2H-1-benzopyran-6-yl)-3-(4-methoxyphenyl)acrylamide]
Cell survival rate of primary neurons after administration [1]: 0.86 ± 0.018 %

CC1(C)C=Cc2cc(NC(=O)/C=C/c3ccccc3)ccc2O1 [BA-07, (E)-N-(2,2-Dimethyl-2H-1-benzopyran-6-yl)-3-phenylacrylamide]
Cytotoxicity to normal neurons (reduced cell survival rate), in words [1]: cytotoxic
Cell survival rate of primary neurons after administration [1]: 0.78 ± 0.046 %
Improvement of survival rate of neuron (OGD 12 h), in words ([2]; 1 μM): significantly improve the survival rate of neuron
Sample in 100 μM: cytotoxic at this concentration ([2]; BA compounds): — ^c

CC1(C)C=Cc2cc(NC(=O)/C=C/c3cccc4ccccc34)ccc2O1 [BA-08, (E)-N-(2,2-Dimethyl-2H-1-benzopyran-6-yl)-3-(naphthalen-1-yl)acrylamide]
Cell survival rate of primary neurons after administration [1]: 0.73 ± 0.025 %
Improvement of survival rate of neuron (OGD 12 h), in words ([2]; 1 μM): significantly improve the survival rate of neuron
Sample in 100 μM: cytotoxic at this concentration ([2]; BA compounds): — ^c

CC1(C)C=Cc2cc(NC(=O)/C=C/c3cccnc3)ccc2O1 [BA-09, (E)-N-(2,2-Dimethyl-2H-1-benzopyran-6-yl)-3-(pyridin-3-yl)acrylamide]
Cell survival rate of primary neurons after administration [1]: 0.49 ± 0.047 %
Improvement of survival rate of neuron (OGD 12 h), in words ([2]; 1 μM): significantly improve the survival rate of neuron
Sample in 100 μM: cytotoxic at this concentration ([2]; BA compounds): — ^c
Neuroprotective activity of BA compounds in OGD model, in words ([2]; OGD 12 h): maintained the same biological activity

CC1(C)C=Cc2cc(NC(=O)/C=C/c3ccco3)ccc2O1 [BA-10, (E)-N-(2,2-Dimethyl-2H-1-benzopyran-6-yl)-3-(furan-2-yl)acrylamide]
Cell survival rate of primary neurons after administration [1]: 0.84 ± 0.026 %
Neuroprotective activity of BA compounds in OGD model, in words ([2]; OGD 12 h): lost neuroprotective effect

CC1(C)C=Cc2cc(NC(=O)/C=C/c3cccs3)ccc2O1 [BA-11, (E)-N-(2,2-Dimethyl-2H-1-benzopyran-6-yl)-3-(thiophen-2-yl)acrylamide]
Cell survival rate of primary neurons after administration [1]: 0.89 ± 0.054%
Improvement of survival rate of neuron (OGD 12 h), in words ([2]; 1 μM): significantly improve the survival rate of neuron
Neuroprotective activity of BA compounds in OGD model, in words ([2]; OGD 12 h): maintained the same biological activity

CC1(C)C=Cc2cc(/C=C/C(=O)Nc3ccccc3)ccc2O1 [BN-01, (E)-3-(2,2-Dimethyl-2H-1-benzopyran-6-yl)-N-phenylacrylamide]
Cell survival rate of primary neurons after administration [1]: 0.85 ± 0.038 %

COc1ccc(NC(=O)/C=C/c2ccc3c(c2)C=CC(C)(C)O3)cc1 [BN-02, (E)-3-(2,2-Dimethyl-2H-1-benzopyran-6-yl)-N-(4-methoxyphenyl)acrylamide]
Cell survival rate of primary neurons after administration [1]: 0.93 ± 0.0080%

COc1cccc(NC(=O)/C=C/c2ccc3c(c2)C=CC(C)(C)O3)c1 [BN-03, (E)-3-(2,2-Dimethyl-2H-1-benzopyran-6-yl)-N-(3-methoxyphenyl)acrylamide]
Cell survival rate of primary neurons after administration [1]: 0.89 ± 0.02%

COc1ccccc1NC(=O)/C=C/c1ccc2c(c1)C=CC(C)(C)O2 [BN-04, (E)-3-(2,2-Dimethyl-2H-1-benzopyran-6-yl)-N-(2-methoxyphenyl)acrylamide]
Cell survival rate of primary neurons after administration [1]: 0.88 ± 0.038%

CC1(C)C=Cc2cc(/C=C/C(=O)Oc3ccccc3)ccc2O1 [BN-05, (E)-3-(2,2-Dimethyl-2H-1-benzopyran-6-yl)-acrylate-phenyl ester]
Cell survival rate of primary neurons after administration [1]: 0.86 ± 0.023 %

COc1ccc(N2CCN(C(=O)/C=C/c3ccc4c(c3)C=CC(C)(C)O4)CC2)cc1 [BN-06, (E)-3-(2,2-Dimethyl-2H-1-benzopyran-6-yl)-1-(4-(4-methoxyphenyl)piperazin-1-yl)prop-2-en-1-one]
Cell survival rate of primary neurons after administration [1]: 0.91 ± 0.028%

CC1(C)C=Cc2cc(/C=C/C(=O)N3CCN(c4ccc(O)cc4)CC3)ccc2O1 [BN-07, (E)-3-(2,2-Dimethyl-2H-1-benzopyran-6-yl)-1-(4-(4-hydroxyphenyl)piperazin-1-yl)prop-2-en-1-one]
Cell survival rate of primary neurons after administration [1]: 0.96 ± 0.0063%
Morphology of neurons induced by OGD, in words [3]: significantly improved the morphology of neurons
Neuroprotective effect of BN compounds on survival of OGD neurons, in words ([2]; OGD 12 h, compared with model group / edaravone): good efficacy in neurons of OGD model

CC1(C)C=Cc2cc(C(CC(=O)Nc3ccccc3)Nc3ccccc3)ccc2O1 (stereo not drawn) [BN-08, 3-(2,2-Dimethyl-2H-1-benzopyran-6-yl)-N-phenyl-3-(phenylamino)propanamide]
Cell survival rate of primary neurons after administration [1]: 0.99 ± 0.019%

COc1ccc(NC(=O)CC(Nc2ccc(OC)cc2)c2ccc3c(c2)C=CC(C)(C)O3)cc1 (stereo not drawn) [BN-09, 3-(2,2-Dimethyl-2H-1-benzopyran-6-yl)-N-(4-methoxyphenyl)-3-((4-methoxyphenyl)amino)propanamide]
Cell survival rate of primary neurons after administration [1]: 0.80 ± 0.047 %
Sample in 100 μM: cytotoxic at this concentration ([2]; BN compounds): — ^c
